Consider 1 compound from patent US9265749B2, “Methods for the treatment of systemic disorders treatable with mast cell stabilizers, including mast cell related disorders” (Patara Pharma, LLC, priority 2014, dated 2016).

The nature of the data set: Single-dose, dose escalation study Part 1: pharmacokinetics of plasma/urine cromolyn sodium (DSCG). In kind it is in vivo. Conditions: human, plasma, inhaled, 40 mg.

Description: This was a Phase 1, randomized, open-label, single-centre, dose-ranging, cross-over study conducted in two parts in total of 18 subjects. Part 1 was conducted in total of 12 healthy adult subjects of 18-45 years of age. Part 2 was conducted in a total of 5 adult patients of 18-45 years of age with systemic mastocytosis. Parts 1 and 2 were conducted in parallel.
40 mg PA-101 (4% DSCG, 40 mg/1 mL), oral inhalation via eFlow 30L. • 2. 80 mg PA-101 (4% DSCG, 80 mg/2 mL), oral inhalation via eFlow 30L. • 3. 40 mg PA-101 (4% DSCG, 40 mg/1 mL), oral inhalation via eFlow 40L. • 4. […] 200 mg oral sodium cromoglycate solution (commercially available product), oral administration. […] 40 mg PA-101 (4% DSCG 40 mg/1 mL), oral inhalation via eFlow 30L • 2. 200 mg oral sodium cromoglycate solution (commercially available product), oral administration. […]
Urine DSCG levels were measured for total DSCG excretion in the urine, and the bioavailability of the DSCG was calculated from the measured levels.
Pharmacokinetic parameters and plasma concentrations are listed and summarized. […] Analysis of variance (ANOVA) including terms for subject and treatment are used to calculate point estimates, and confidence intervals (CI) for treatment differences with respect to PK parameters (90% CI) are calculated.

What is called AUC is concentration integrated over time. `O=C(O)c1cc(=O)c2c(OCC(O)COc3cccc4oc(C(=O)O)cc(=O)c34)cccc2o1` [cromolyn sodium] returned an AUC (40 mg dose using the 30L device (text repeat of Table 2, PA-101)) of 338 ng·h/mL and an AUC (40 mg dose using the 40L device (text repeat of Table 2, PA-101)) of 212 ng·h/mL.
